The source of these data is US20050180962A1, “Inactivated probiotic bacteria and methods of use thereof” (priority 2003, published 2005).

Data set [1] relates to DSS-induced colitis. In words: DSS-induced colitis (DSS 3.5% in drinking water, 7 days). More on the design: key to Histological Score: summed histological score, 0 (minimum) to 20 (maximum). Format: in vivo, Balb/c mice. The following applies: for Disease Activity Score / Histological Score / MPO: mean±SEM. On the procedure:
To induce dextran sodium sulfate (DSS) colitis, DSS (Sigma) was given in the drinking water for 7 days. Preliminary studies were performed to identify the concentration of DSS in the drinking water required to elicit a similar disease activity score in different mouse strains.
(§1) Mice were sacrificed 7 days after the induction of colitis. All studies were performed in a blind fashion.
Probiotics, including live probiotics, irradiated probiotics, and heat killed probiotics, were intragastrically (i.g.) given starting 10 days prior to the induction of colitis and for 7 days thereafter. In preliminary studies, mice were treated daily by i.g. administration of 0.28×10^8, 2.8×10^8 or 28×10^8 CFU of irradiated probiotics per mouse per day.
(§2) In another experiment 50 μg of these DNA preparations were administered i.g. or intrarectally (i.r.) 2 hrs prior to DSS administration. In the IL-10 deficient colitis model, ten-week old mice were treated s.c. once a week with the various DNA preparations (see above), and this treatment continued for 4 weeks as described (Rachmilewitz et al. (2002) supra). The disease-activity score, histological score, and colonic myeloperoxidase (MPO) activity were determined as described (Rachmilewitz et al. (2002) supra).
A mouse model of colitis was used and assessed, as described. Rachmilewitz et al. (2002) Gastroenterology 122:1428-1441. Colitis was induced by adding dextran sodium sulfate (DSS, Sigma), 3.5% to the drinking water, and allowing them to drink ad libitum. Seven days after induction of colitis, mice were weighed and inspected for diarrhea and rectal bleeding. The mice were sacrificed, and the entire colon was dissected and its length measured and weighed. Scores were again defined as follows: Changes in body weight: No loss—0; 5 to 10%—1; […], —2; 15 to 20%, —3; >20%—4. Hemoccult: No blood, —0; positive, —2; gross blood, —4. Mucosal samples were processed for determination of MPO activity according to: Bradley (1982) J Invest Dermatol 78:206-9.
When indicated, sections from the distal colon were fixed in buffered formalin and routine 5 μm sections were prepared and stained with hematoxylin and eosin. Stained sections were examined blindly and scored. The scoring system took into account the depth of the ulcer, the extent of the ulcer, presence of inflammation, extent of inflammation, and location of fibrosis. Minimal score was 0 and maximal score was 20. Scoring was as follows for depth of the ulcer: 0=no ulcer; 1—mucosal involvement; 2—mucosal+submucosal involvement; 3=penetration of muscularis propria; 4=full thickness involvement. Scoring was as follows for extent of the ulcer: 0=no ulcer; 1=punctate; 2=minimal; 3=moderate; 4=widespread. Scoring was as follows for presence of inflammation: 0=none; 1=minimal; 2=mild; 3=moderate; 4=severe. Scoring was as follows for extent of inflammation: 0=none; 1=mucosal; 2=mucosal+submucosal involvement; 3=mucosal+submucosal+muscle penetration; 4=full thickness involvement. Scoring was as follows for location of fibrosis: 0=none; 1=mucosa only; 2=mucosa+submucosa; 3=including muscle layer; 4=full thickness fibrosis.
Fifty mg colonic mucosal scrapings were homogenized with a polytron (Kinematica GmbH, Krienz-Luzem, Switzerland) in ice-cold hexadecyltrimethyl ammonium bromide (0.5%) in 50 mM phosphate buffer, pH 6.0. The homogenate was sonicated for 10 seconds, freeze-thawed three times, and centrifuged for 15 minutes. An aliquot of the supernatant was taken for determination of myeloperoxidase (MPO) enzyme activity, as described (Rachmilewitz et al. (2002) supra).

For data set [2], the system named is TNBS-induced colitis. The data set is described as follows: TNBS-induced colitis. It is filed as in vivo, Balb/c mice. Conditions: s.c. once 2 hours before TNBS; day 7; mean±SEM. Here is the method:
Trinitrobenzenesulfonic acid (TNBS) colitis was induced in 8 week old, Balb/c mice by rectal instillation of 0.5 mg/mouse of 2,4,6-trinitrobenzene sulfonic acid (Sigma) dissolved in 0.1 ml of 50% ethanol as described. Rachmilewitz et al. (2002), supra.
as §1
as §2, with “Various DNA preparations (ISS-ODN and control-ODN, 30 μg/mouse; probiotic DNA, methylated probiotic DNA, E. coli DNA and calf thymus DNA, 50 μg/mouse) and DNase treated probiotics (i.e., the amount of microorganisms that yielded 50 μg of probiotic DNA) were s.c. injected 2 hrs prior to the administration of DSS or TNBS. In another” for “In another”

Data set [3] concerns chronic DSS-induced colitis. In words: Chronic DSS-induced colitis (treatment model). It is filed as in vivo, Balb/c mice. On the procedure: To evaluate whether probiotics are effective not only in the prevention but also in the treatment of colitis the following experiment was performed: Mice were treated for 7 days with DSS 3.5% added to the drinking water. From the 8th day until sacrifice on day 15, the concentration of DSS in the drinking water was reduced to 1.75%. During the 15 days of the experiment, 2 groups of mice were treated daily i.g. with viable or with irradiated probiotics 2.8×10^8 CFU. A third group was treated s.c. on day 8 with ISS-ODN (10 μg) and a fourth control group was treated i.g. daily with 0.2 ml of saline. […] The colon was isolated, weighed, sections were taken for histology and mucosal samples were obtained for MPO determination.

The subject of data set [4] is spontaneous colitis in IL-10 KO mice. The data set is described as follows: Spontaneous colitis in IL-10 KO mice. It is filed as in vivo, IL-10 KO mice (B6). The following applies: s.c. once a week for 4 weeks; mean±SEM. On the procedure:
as §2, with “Various DNA preparations (ISS-ODN and control-ODN, 30 μg/mouse; probiotic DNA, methylated probiotic DNA, E. coli DNA and calf thymus DNA, 50 μg/mouse) and DNase treated probiotics (i.e., the amount of microorganisms that yielded 50 μg of probiotic DNA) were s.c. injected 2 hrs prior to the administration of DSS or TNBS. In another” for “In another”

In data set [5] the test system is TLR9. The data set is described as follows: IL-12 (p40) and IL-6 secretion by macrophages (ELISA). It is filed as cell-based, mice. The following applies: TLR9 null macrophages, 24 hours post-stimulation. (An ELISA detects its analyte on a solid surface through an enzyme-linked reagent.)
In data set [6] the test system is commensal flora. The data set is described as follows: Effect of chloroquine on stool flora of mice. Conditions: 10 mg/kg s.c. daily for 7 days versus saline. It is filed as in vivo. Here is the method: Control group was treated s.c. daily with 0.2 ml of saline. After 7 days, stool samples were collected, homogenized and cultured on blood, Maconkey, phenylethanol, chocolate, M.R.S., and anaerobic agars.

[7] abbreviates: i.g., 50 μg once 2 hours before DSS.
Setting [8] is: s.c. once 2 hours before DSS, ODNs 30 μg/mouse, DNAs 50 μg/mouse.
Where [9] appears, read: i.r., 50 μg once 2 hours before DSS.
Setting [10] is: DSS 3.5% 7 days then 1.75% 7 days, probiotics 2.8×10^8 CFU i.g. daily, ISS-ODN 10 μg s.c. day 8, day 15, mean±SEM.

As to “5′-TGACTGTG AAGGTTAGAGATGA-3 (DNA TGACTGTGAAGGTTAGAGATGA; DNA, all phosphorothioate, methylation of C not given here) [Control-ODN]”, the “Disease Activity Score” value in data set [1] (setting [7]) is 6.7 ± 0.8; in data set [1] (setting [8]), 3.8 ± 0.7; in data set [2] it was 1.3 ± 0.2. In addition, the “Histological Score” value in data set [1] (setting [7]) is given as 5.7 ± 0.3; in data set [1] (setting [8]), 8.0 ± 0.9; in data set [2], 4.8 ± 1.8. The figures for the MPO in data set [1] (setting [7]), in data set [1] (setting [8]) and in data set [2] were 1.90 ± 0.20 U/gr, 4.2 ± 0.8 U/gr and 2.00 ± 0.30 U/gr, respectively.

With 5′-TGACTGTGAACGTTCGAGATGA-3′ [ISS-ODN], the “Disease Activity Score” value was found to be 3.6 ± 0.7 in data set [1] (setting [7]); 6.3 ± 0.7 in data set [1] (setting [9]); 0.4 ± 0.4 in data set [1] (setting [8]); 1.1 ± 0.4 in data set [3] (setting [10]); 0.4 ± 0.3 in data set [2]. The “Histological Score” value in data set [1] (setting [7]) is reported as 2.8 ± 0.6; in data set [1] (setting [9]), 5.9 ± 0.7; in data set [1] (setting [8]) it was 0 ± 0; in data set [3] (setting [10]), 6.9 ± 0.8; in data set [2] it was 0 ± 0; in data set [4] it was 1.8 ± 1.2. Further, the MPO in data set [1] (setting [7]) was found to be 1.09 ± 0.10 U/gr; in data set [1] (setting [9]) it was 1.90 ± 0.30 U/gr; in data set [1] (setting [8]), 0.9 ± 0.1 U/gr; in data set [3] (setting [10]) it was 1.25 ± 0.19 U/gr; in data set [2] it was 0.8 ± 0.10 U/gr; in data set [4], 0.8 ± 0.10 U/gr. Besides, the “outcome of colitis” value in data set [1] (i.r. administration, once 2 hrs before DSS) is “had no effect”. For the same molecule, the “severity of DSS-induced colitis” value in data set [1] (intragastric or s.c. administration, once 2 hrs before DSS) is “inhibited the severity”. Further, the “severity of chronic DSS induced colitis” value in data set [3] (given with or after induction of colitis) is reported as “equally attenuate the severity”. The “secretion of p40 or IL-6” value in data set [5] is “did not induce”.

Turning to `CCN(CC)CCCC(C)Nc1ccnc2cc(Cl)ccc12` (stereo not drawn) [Chloroquine, chloroquine], the MPO in data set [1] (colonic MPO, probiotics 2.8×10^8 CFU i.g. daily, chloroquine 10 mg/kg s.c. daily, DSS 3.5% 7 days) worked out at 1.54 ± 0.16 U/gr. Also, the “Histological Score” value in data set [1] (probiotics 2.8×10^8 CFU i.g. daily, chloroquine 10 mg/kg s.c. daily, DSS 3.5% 7 days) is 8.0 ± 0.8. Moreover, the “identity or quantity of bacterial strains grown from the stool” value in data set [6] was “No significant differences”.
